Data reported in US11718628B2, “SREBP inhibitors comprising a 6-membered central ring” (Capulus Therapeutics, LLC, priority 2018, dated 2023).
Values after ≈ are worked out from the molar mass of the structure shown.

Columns and labels:
[1] = Half-life in human liver microsomes; assay type: in vitro ADME; conditions: human, liver microsomes, NADPH, 37° C., read-out: G: half-life human liver microsomes
Procedure: (§1) Half-life Human Microsomes: Compounds were evaluated for stability in human liver microsomes. A 10 mM stock solution of the compound being evaluated was prepared in DMSO and diluted with water:acetonitrile (1:1) to a concentration of 1 mM. A working concentration of 100 μM was prepared by further dilution with water:acetonitrile (1:1). To make the preincubation mixture, 2.5 μL of the diluted compound was combined with 75 μL of human liver microsomes at 3.33 mg/mL, and 85 μL of 100 mM potassium phosphate buffer, and this mixture was pre-incubated for 10 min at 37° C. To make the 60 minute mixture without cofactor, 32.5 μL of the preincubation mixture was combined with 17.5 μL of 100 mM potassium phosphate buffer and incubated for 60 min at 37° C. To make the 0 min sample with cofactor (NADPH), 16.25 μL of the preincubation mixture was combined with 200 μL of acetonitrile containing internal standard and 8.75 μL of cofactor (NADPH). To make the incubation mixture, 62 μL of cofactor (2.85 mM) was combined with the remaining incubation mixture, and incubated for 60 min at 37° C. To prepare the sample mixture to be evaluated, 25 μL incubation mixture was combined with 200 μL of acetonitrile containing internal standard and vortexed for 5 min at 1200 rpm, then centrifuged for 10 min at 4000 rpm. The supernatant was diluted 2 fold with water and injected on LC-MS/MS. The sample mixture was evaluated by LC-MS/MS using 10 mM ammonium acetate with 0.1% FA as the aqueous mobile phase, and methanol as the organic mobile phase.

[2] = Half-life in mouse liver microsomes; assay type: in vitro ADME; conditions: mouse, liver microsomes, read-out: H: half-life of mouse liver microsomes
Procedure: as §1
Half-life Mouse Microsomes: Compounds were evaluated in mouse liver microsomes following a similar procedure as described above for human liver microsomes. A similar procedure could be used to evaluate compounds in rat liver microsomes.

[3] = Kinetic solubility; assay type: physicochemical; conditions: aqueous buffer, kinetic from dmso stock, pH 7.4 buffer, room temperature, 1.0% DMSO, read-out: I: kinetic solubility class
Procedure: Kinetic Solubility Procedure: A 10 mM stock solution of a compound was prepared in DMSO, then 4 μL of the stock was added to a deep well plate containing 396 μL of pH 7.4 buffer. The sample plate was vortexed at 800 rpm for 24 h on thermomixer at room temperature. The plate was sealed well during the incubation process. The DMSO content in the sample was 1.0%. The concentration of the evaluated compound in the final incubation was 100 μM. At the end of the incubation period, the sample plate was centrifuged at 4000 rpm for 10 min and analyzed in LC-UV against a calibration curve (CC). Values <10 μg/mL=Low; 10 to 60 μg/mL=Medium; >60 μg/mL=High.

| Compound | half-life at 1 µM [1] [min] | half-life at 1 µM [2] [min] | solubility kinetic at 24 h [3] [µg/mL] |
| --- | --- | --- | --- |
| CC(C)(C)c1cc(-c2cncc(-c3ccc(C(=O)N4CCC(O)CC4)cc3Cl)c2F)ccn1 | 9.52 | 39.2 | 10 to 60 (≈ 21.4 to 128 µM) |
| CC(C)(C)c1cc(-c2cncc(-c3ccc(NC(=O)OCCN4CCCC4)cc3Cl)c2)ccn1 | 53.2 | 14.4 | 10 to 60 (≈ 20.9 to 125 µM) |
| COc1ncc(-c2ccc(C(=O)N3CCC(O)CC3)cc2Cl)cc1-c1ccnc(C(C)(C)C)c1 | 16.1 | 38.5 | 10 to 60 (≈ 20.8 to 125 µM) |
| Cc1ncc(-c2ccc(C(=O)N3CCC(O)CC3)cc2Cl)cc1-c1ccnc(C(C)(C)C)c1 | 7.8 | 41.7 | 10 to 60 (≈ 21.6 to 129 µM) |
| O=C(c1ccc(-c2cncc(-c3ccnc(C4CC4)c3)c2)c(Cl)c1)N1CCC(F)C(O)C1 (stereo not drawn) | 20.5 | 68.3 | < 10 |
| O=C(Nc1ccc(-c2cncc(-c3ccnc4c3OCCO4)c2)c(Cl)c1)OC1CC1 | 9.94 | 16.4 | < 10 |
| O=C(c1ccc(-c2cncc(-c3ccnc(C4CC4)c3)c2)c(Cl)c1)N1CCC(F)CC1 | 7.28 | 12.4 | 10 to 60 (≈ 22.9 to 138 µM) |
| O=C(c1ccc(-c2cncc(-c3ccnc(C4CC4)c3)c2)c(Cl)c1)N1CCC[C@H]1CO | 16.2 | 66.7 | 10 to 60 (≈ 23 to 138 µM) |
| O=C(c1ccc(-c2cncc(-c3ccnc(C4CC4)c3)c2)c(Cl)c1)N1CC[C@H](O)C1 | 39.2 | 87.2 | 10 to 60 (≈ 23.8 to 143 µM) |
| O=C(c1ccc(-c2cncc(-c3ccnc(C4CC4)c3)c2)c(Cl)c1)N1CC2CCC(C1)C2O (stereo not drawn) | 21.3 | 42.4 | 10 to 60 (≈ 21.7 to 130 µM) |
| CC(C)(C)c1cc(-c2cncc(-c3ccc(C(=O)N4CCC(O)C(O)CC4)cc3Cl)c2)ccn1 (stereo not drawn) | 27.7 | 120 | 10 to 60 (≈ 20.8 to 125 µM) |
| CS(=O)(=O)Nc1ccc(-c2cncc(-c3ccnc4c3OCCO4)c2)c(Cl)c1 | 37.4 | 104 | < 10 |
| CC(C)OC(=O)Nc1ccc(-c2cncc(-c3ccnc(C(C)(C)O)c3)c2)c(Cl)c1 | 120 | 120 | < 10 |
| CC(C)(O)c1cc(-c2cncc(-c3ccc(NS(C)(=O)=O)cc3Cl)c2)ccn1 | 116 | 120 | < 10 |
| CC(C)OC(=O)Nc1ccc(-c2cncc(-c3ccnc(C4(F)CCC4)c3)c2)c(Cl)c1 | 55.9 | 97.9 | < 10 |
| CC(C)(CF)c1cc(-c2cncc(-c3ccc(C(=O)N4CCC(O)CC4)cc3Cl)c2)ccn1 | 41.3 | 77.5 | 10 to 60 (≈ 21.4 to 128 µM) |
| CC(C)(C)c1cc(-c2cncc(-c3ccc(C(=O)N4CCC(=O)C(F)C4)cc3Cl)c2)ccn1 (stereo not drawn) | 11.2 | 1.94 | 10 to 60 (≈ 21.5 to 129 µM) |
| CC(C)(C)c1cc(-c2cncc(-c3ccc(C(=O)N4CCC[C@@H]4C(C)(C)O)cc3Cl)c2)ccn1 | 14 | 64.3 | 10 to 60 (≈ 20.9 to 126 µM) |
| CC(C)(C)c1cc(-c2cncc(-c3ccc(C(=O)N4CCC[C@H]4C(C)(C)O)cc3Cl)c2)ccn1 | 16.8 | 27.4 | 10 to 60 (≈ 20.9 to 126 µM) |
| CC(C)(C)c1cc(-c2cncc(-c3ccc(C(=O)N4CCC(O)C(F)C4)cc3Cl)c2)ccn1 (stereo not drawn) | 120 | 98.5 | 10 to 60 (≈ 21.4 to 128 µM) |
